Source: patent US5387709A, “Substituted sulfonamides, process of preparation and medicines containing same” (Lipha Lyonnaise Industrielle Pharmaceutique, priority 1990, dated 1995)
Read-outs that look alike come from different tables or passages of the source.

Legend:
platelets of guinea-pig = assay: Inhibition of the platelet aggregation induced by U46619 (BORN test), guinea-pig platelets; format: cell-based; conditions: read-out: PLATELET AGGREGATION GUINEA-PIG IC 50
Source text: (A) Inhibition of the platelet aggregation induced by U46619, a stable analogue of TXA2 (9,11-dideoxy-11α,9α-epoxymethanoprostaglandine F2 α):
The tests determine a concentration of compound which inhibits at 50% (CI50) a liminar aggregation induced by U46619. The activities of the compounds of the present invention are given in example 108.
(§1) The products of examples 1 to 107 have been tested for platelet aggregation on guinea-pig and on the contraction of the aorta in rat as described previously.

rat aorta = assay: Inhibition of the U46619 induced rat aorta vasoconstriction; format: cell-based; conditions: Rattus norvegicus, contraction by U46619 (142 nM), rat thoracic aorta, 37° C.; read-out: VASOCONSTRICTION RAT AORTA IC 50
Procedure: (B) Inhibition of the U46619 induced rat aorta vasoconstriction:
male rats weighing about 300 g are put to death by euthanasia; the thoracic aorta is rapidly taken out. A sample of about 1 cm is cut into a spiral, and placed in a vat containing 20 ml of nutrient medium (Krebs-Henseleit) kept a 37° C. and oxygenated (O2 95%, CO2 5%). The contractions are recorded with an isotonic strain gauge. After a rest of 45 mn, supramaximum contractions are provoked by the addition of an analogue of TXA2 (U46619: 142 nM) to the survival medium. A plateau is generally reached after 10 mn of contact, the latter not exceeding 25 mn. A rest of 30 mn and a plurality of rinses take place after each contraction. The products are added 10 mn after U46619 and allowed to rest 15 mn, after which delay the inhibition is measured. The inhibitory concentration 50 (IC) is determined for each compound studied and on a minimum of 3 aortas. The activities of the compounds of the present invention are described in example 108.
as §1

| Compound | IC50 (platelets of guinea-pig; Cavia porcellus, Platelet) [nM] | IC50 (platelets of guinea-pig) [nM] | IC50 (rat aorta) [nM] |
| --- | --- | --- | --- |
| O=C(O)Cc1ccc(C[C@@H]2CCC[C@H]2NS(=O)(=O)c2ccc(Cl)cc2)cc1 (relative stereo) [Example 2, Sodium trans-4-[[2-[[(4-chlorophenyl)sulfonyl]amino]-cyclopentyl]methyl]benzene-acetate] | – | 720 | 70 |
| Cc1ccc(S(=O)(=O)N[C@@H]2CCC[C@H]2Cc2ccc(CC(=O)O)cc2)cc1 (relative stereo) [Example 7, Trans-4-[[2-[[(4-methylphenyl)sulfonyl]amino]cyclopentyl]methyl]-benzeneacetic acid] | 3300 | – | 300 |
| O=C(O)Cc1ccc([C@@H]2CCCC[C@H]2NS(=O)(=O)c2ccc(Cl)cc2)cc1 (relative stereo) [Example 10, Trans-4-[2-[[(4-chlorophenyl)sulfonyl]amino]cyclohexyl]benzeneacetic acid] | 1300 | – | 5000 |
| O=C(O)Cc1ccc(C[C@@H]2CCCC[C@H]2NS(=O)(=O)c2ccc(Cl)cc2)cc1 (relative stereo) [Example 11, Trans-4-[[2-[[(4-chlorophenyl)sulfonyl]amino]cyclohexyl]methyl]benzeneacetic acid] | 390 | – | 50 |
| O=C(O)Cc1ccc(OC2CCCC2NS(=O)(=O)c2ccc(Cl)cc2)cc1 (stereo not shown) [Example 9, 4-[2-[[(4-chlorophenyl)sulfonyl]amino]cyclopentyloxy]benzeneacetic acid] | > 20000 | – | 1000 |
| O=C(O)Cc1ccc(C2(CNS(=O)(=O)c3ccc(Cl)cc3)CC2)cc1 [Example 12, 4-[1-[[[(4-Chlorophenyl)sulfonyl]amino]methyl]cyclopropyl]benzeneacetic acid] | 1800 | – | 70 |
| O=C(O)Cc1ccc(C2(CNS(=O)(=O)c3ccc(Cl)cc3)CCCC2)cc1 [Example 14, 4-[1-[[[(4-Chlorophenyl)sulfonyl]amino]methyl]cyclopentyl]benzeneacetic acid] | 5500 | – | 70 |
| O=C(O)Cc1ccc(CC2(CNS(=O)(=O)c3ccccc3)CCCC2)cc1 [Example 15, 4-[[1-[[[(Phenyl)sulfonyl]amino]methyl]cyclopentyl]methyl]benzeneacetic acid] | 1100 | – | 300 |
| COC(=O)Cc1ccc(CC2(CNS(=O)(=O)c3ccc(Cl)cc3)CCCC2)cc1 [Example 18, Methyl 4-[[1-[[[(4-chlorophenyl)sulfonyl]amino]methyl]cyclopentyl]methyl]benzeneacetate] | 660 | – | > 1000 |
| O=C(O)Cc1ccc(CC2(CNS(=O)(=O)c3ccc(Cl)cc3)CCCC2)cc1 [Example 19, 4-[[1-[[[(4-Chlorophenyl)sulfonyl]amino]methyl]cyclopentyl]methyl]benzeneacetic acid] | 260 | – | 100 |
| Cc1ccc(S(=O)(=O)NCC2(Cc3ccc(CC(=O)O)cc3)CCCC2)cc1 [Example 24, 4-[[1-[[[(4-methylphenyl)sulfonyl]amino]methyl]cyclopentyl]methyl]benzeneacetic acid] | 570 | – | 300 |
| O=C(O)c1ccc(CC2(CNS(=O)(=O)c3ccc(Cl)cc3)CCCC2)cc1 [Example 25, 4-[[1-[[[(4-Chlorophenyl)sulfonyl]amino]methyl]cyclopentyl]methyl]benzoic acid] | 1500 | – | 60 |
| O=C(O)Cc1ccc(CC2(CNS(=O)(=O)c3ccc(Cl)c(Cl)c3)CCCC2)cc1 [Example 26, 4-[[1-[[[(3,4-Dichlorophenyl)sulfonyl]amino]methyl]cyclopentyl]methyl]benzeneacetic acid] | 3100 | – | 460 |
| O=S(=O)(NCC1(Cc2ccc(CCO)cc2)CCCC1)c1ccc(Cl)cc1 [Example 28, 4-Chloro-N-[[1-[[4-(2-hydroxyethyl)phenyl]methyl]cyclopentyl]methyl]benzenesulfonamide] | 2600 | – | > 1000 |
| O=C(O)Cc1ccc(C2(CNS(=O)(=O)c3ccc(Cl)cc3)CCCCC2)cc1 [Example 29, 4-[1-[[[(4-Chlorophenyl)sulfonyl]amino]methyl]cyclohexyl]benzeneacetic acid] | 5300 | – | 1000 |
| CS(=O)(=O)c1ccc(S(=O)(=O)NCC2(Cc3ccc(CCO)cc3)CCCC2)cc1 [Example 44, N-[[1-[[4-(2-Hydroxyethyl)phenyl]methyl]cyclopentyl]methyl]-4-methylsulfonylbenzenesulfonamide] | > 5000 | – | – |
| O=C(O)Cc1ccc(CC2(CNS(=O)(=O)c3cccc4cccnc34)CCCC2)cc1 [Example 106, 4-[[1-[[[(Quinol-8-yl)sulfonyl]amino]methyl]cyclopentyl]methyl]benzeneacetic acid] | > 5000 | – | – |

Continued, values first:

| IC50 (platelets of guinea-pig; Cavia porcellus, Platelet) [nM] | IC50 (platelets of guinea-pig) [nM] | IC50 (rat aorta) [nM] | Compound |
| --- | --- | --- | --- |
| 690 | – | – | O=C(O)Cc1ccc(C[C@@H]2CCC[C@H]2NS(=O)(=O)c2ccc(Cl)cc2)cc1 (relative stereo) [Example 1, Trans-4-[[2-[[(4-chlorophenyl)sulfonyl]amino]cyclopentyl]methyl]-benzeneacetic acid] |
| 600 | – | 60 | O=C(O)Cc1ccc(C[C@@H]2CCC[C@@H]2NS(=O)(=O)c2ccc(Cl)cc2)cc1 (relative stereo) [Example 3, Cis-4-[[2-[[(4-chlorophenyl)sulfonyl]amino]cyclopentyl]methyl]benzeneaceticacid] |
| 23000 | – | 200 | O=C(O)Cc1ccc(C[C@@H]2CCC[C@H]2NS(=O)(=O)c2ccc(F)cc2)cc1 (relative stereo) [Example 4, Trans-4-[[2-[[(4-fluorophenyl)sulfonyl]amino]cyclopentyl]methyl]benzeneacetic acid] |
| 6300 | – | 560 | O=C(O)Cc1ccc(C[C@@H]2CCC[C@H]2NS(=O)(=O)c2ccccc2)cc1 (relative stereo) [Example 6, Trans-4-[[2-[[(phenyl)sulfonyl]amino]cyclopentyl]methyl]benzeneacetic acid] |
| 680 | – | 60 | O=C(O)Cc1ccc(C2(CNS(=O)(=O)c3ccc(Cl)cc3)CCC2)cc1 [Example 13, 4-[1[[[(4-Chlorophenyl)sulfonyl]amino]methyl]cyclobutyl]benzeneacetic acid] |
| 2400 | – | 200 | O=C(O)Cc1ccc(CC2(CNS(=O)(=O)c3ccc(F)cc3)CCCC2)cc1 [Example 16, 4-[[1-[[[(4-Fluorophenyl)sulfonyl]amino]methyl]cyclopentyl]methyl]benzeneacetic acid] |
| > 20000 | – | > 1000 | CC(=O)c1ccc(CC2(CNS(=O)(=O)c3ccc(Cl)cc3)CCCC2)cc1 [Example 17, N-[[1-[(4-Acetylphenyl)methyl]cyclopentyl]methyl]-4-chlorobenzenesulfonamide] |
| 290 | – | 20 | O=C(O)Cc1ccc(CC2(CNS(=O)(=O)c3ccc(Cl)cc3)CCC2)cc1 [Example 27, 4-[[1-[[[(4-chlorophenyl)sulfonyl]amino]methyl]cyclobutyl]methyl]benzeneacetic acid] |
| > 5000 | – | – | O=S(=O)(NCC1(Cc2ccc(CCO)cc2)CCCC1)c1ccc(OC(F)(F)F)cc1 [Example 45, N-[[1-[[4-(2-Hydroxyethyl)phenyl]methyl]cyclopentyl]methyl]-4-trifluoromethoxybenzenesulfonamide] |
| 1000 | – | – | O=C(O)Cc1ccc(CC2(CNS(=O)(=O)c3ccc4ccccc4c3)CCCC2)cc1 [Example 102, 4-[[1-[[[(Naphthalen-2-yl)sulfonyl]amino]methyl]cyclopentyl]methyl]benzeneacetic acid] |
